The target in assay [1] is T1, retroviral protease (HIV-1) (Human immunodeficiency virus type 1 group M subtype B, UniProt P04585).
T1 construct: the retroviral protease, is contained within the polyprotein
The assay can be described thus: fluorometric assay for HIV protease (Toth and Marshall). Type of assay: biochemical. To be noted: for IC50: where isomers were resolved, activities of both isomers are shown; for inhibition at 10 µM: read-out: percent at 10 μM, at 10 μM. The protocol: These peptide analogs were assayed in solution for their ability to inhibit retroviral protease (HIV-1) by a fluorometric assay for HIV protease as described by Toth and Marshall, Int. J. Peptide Protein Res. 36, 546-550 (1990), and in U.S. Pat. No. 5,011,910.
Table 2, below, sets forth the median inhibitory concentration, IC50, (μM) for the compounds thus tested. In those cases where the isomers were resolved, the activities of both isomers are shown.

Assay [2] addresses T2, HIV protease (Human immunodeficiency virus type 1 group M subtype B, UniProt P04585). Type of assay: biochemical. Details: made in house; host or cells: chemical synthesis (gift of Dr. Stephen Kent, Caltech) or E. coli (gift of Dr. George Glover, Monsanto). The note with it: for Relative Rate: relative cleavage rate: percent of standard substrate concentration cleaved in twenty minutes, control Ac-Thr-Ile-Met-Met-Gln-Arg-NH2 = 1.00. As to the method: HIV protease assay. The HIV protease assay was conducted using either synthetic HIV protease [Schneider and Kent, Cell 54, 363 (1988)] kindly supplied by Dr. Stephen Kent of Caltech, or cloned material expressed in E. coli supplied by Dr. George Glover of the Monsanto Company. […] Synthetic protease (1 mg/ml) was dissolved in a buffer (20 mM PIPES, 0.5% NP-40 detergent, 1 mM dithiothreitol), pH 6.5 . Substrates were also dissolved in the same buffer at 1 mg/ml concentration. 5 μl 1 of substrate and 5 μl of HIV protease were added to an Eppendorf tube which was centrifuged for one minute and incubated at 25° for the desired time. The reaction was stopped by the addition of 50 μl of 50% TFA. The sample was diluted with 200 μl of water and applied to a C4 HPLC column developed with 0.1% TFA for 5 min followed by a gradient of 0-50% acetonitrile in 50 min. For inhibitor studies, 5 μl of the protease solution was preincubated for 10 min with the 5 μl of inhibitor (dissolved in 10% DMSO and diluted to 1 mg/ml with buffer). Then 5 μl of test substrate, acetyl-Thr-Ile-Met-Met-Gln-Arg-NH2 was added in order to determine inhibition of cleavage. Reactions were stopped as above and cleavage rates were monitored by HPLC as above.
Substrate analogs were prepared in order to examine the relative hydrolysis rates of the various sites. […] Relative cleavage rates were measured by comparing the percent of a standard substrate concentration cleaved by the same concentration of enzyme in twenty minutes (linear portion of curve).

Assay [3] concerns the target T2, HIV protease. To be noted: cited from earlier work.

We go through 15 molecules from US5086165A, “Inhibitors of retroviral protease with a ketomethylene isosteric replaced amide bond” (Washington University, priority 1991, dated 1992).

“And” between values parts separate entries of the source, which are not always exact repeats. Equal entries are not always repeated. Where two headings read alike, the source gives them in different places. Where a SMILES comes first, the peptide text is derived from it.

Consider `CCCC[C@H](NC(=O)[C@@H](NC(=O)[C@@H](NC(=O)c1ccccc1N)[C@@H](C)O)[C@@H](C)CC)C(=O)CC(Cc1ccc2ccccc2c1)C(=O)N[C@@H](CCC(N)=O)C(=O)N[C@@H](CCCNC(=N)N)C(N)=O` (stereo partly drawn) [Abz-Thr-Ile-Nle-.PSI.(K)2-Nal-Gln-Arg-NH2] (HELM PEPTIDE1{[Nc1ccccc1C(=O)[*:2]].T.I.[CCCC[C@H](N[*:1])C(=O)CC(Cc1ccc2ccccc2c1)C(=O)[*:2]].Q.R.[am]}$$$$V2.0), for which the half-maximal inhibitory concentration (IC50) (in general, the concentration needed to halve the response being measured) in assay [1] was found to be 4.8 nM. For `CC[C@H](C)[C@H](NC(=O)[C@@H](NC(=O)c1ccccc1N)[C@@H](C)O)C(=O)N[C@@H](Cc1ccccc1)C(=O)CC(C)C(=O)N[C@@H](CCC(N)=O)C(=O)N[C@@H](CCCNC(=N)N)C(N)=O` (stereo partly drawn) [Abz-Thr-Ile-Phe.PSI.(K)Ala-Gln-Arg-NH2] (HELM PEPTIDE1{[Nc1ccccc1C(=O)[*:2]].T.I.[CC(CC(=O)[C@H](Cc1ccccc1)N[*:1])C(=O)[*:2]].Q.R.[am]}$$$$V2.0), the 50% inhibitory concentration (IC50) in assay [1] turned out to be 33 nM.

On to `CCCC[C@H](NC(=O)c1ccc2ccccc2n1)C(=O)CC(Cc1ccc2ccccc2c1)C(=O)N[C@@H](CCC(N)=O)C(=O)N[C@@H](CCCNC(=N)N)C(N)=O` (stereo partly drawn) [Qua--Nle.psi.(K)2-Nal--Gln--Arg--NH2, Qua-Nle.PSI.(K)2-Nal-Gln-Arg-NH2], for which the inhibition at 10 µM in assay [1] amounted to 96%. `CCCC[C@H](NC(=O)[C@@H](NC(=O)c1ccc2ccccc2n1)[C@@H](C)CC)C(=O)CC(Cc1ccc2ccccc2c1)C(=O)N[C@@H](CCC(N)=O)C(=O)N[C@@H](CCCNC(=N)N)C(N)=O` (stereo partly drawn) [Qua-Ile-Nle.PSI.(K)2-Nal-Gln-Arg-NH2]: half-maximal inhibition in assay [1] (IC50) was put at 8.5 nM.

Turning to `CCCC[C@H](NC(=O)[C@@H](NC(=O)c1cnc2ccccc2n1)[C@@H](C)CC)C(=O)CC(Cc1ccc2ccccc2c1)C(=O)N[C@@H](CCC(N)=O)C(N)=O` (stereo partly drawn) [Qui--Ile--Nle.psi.(K)2-Nal--Gln--NH2, Qui-Ile-Nle.PSI.(K)2-Nal-Gln-NH2], in assay [1], the inhibition at 10 µM was 54%.

With `CCCC[C@H](NC(=O)c1cnc2ccccc2n1)C(=O)CC(Cc1ccc2ccccc2c1)C(=O)N[C@@H](CCC(N)=O)C(N)=O` (stereo partly drawn) [Qui--Nle.psi.(K)2-Nal--Gln--NH2, Qui-Nle.PSI.(K)2-Nal-Gln-NH2], the inhibition at 10 µM in assay [1] worked out at 7%. Take `CCCC[C@H](NC(=O)[C@@H](NC(=O)[C@@H](NC(=O)c1cnc2ccccc2n1)[C@@H](C)O)[C@@H](C)CC)C(=O)CC(Cc1ccc2ccccc2c1)C(=O)N[C@@H](CCC(N)=O)C(N)=O` (stereo partly drawn) [Qui-Thr-Ile-Nle.PSI.(K)2-Nal-Gln-NH2]: the IC50 in assay [1] is 1110 nM and 8080 nM.

For Aba--Thr--Ile--Nle--PnF--Gln--Arg--NH2, the “Relative Rate” value in assay [2] amounted to 1.46. The same measure, in the same setting: the result for Ac--Thr--Ile--Nle--Hle--Gln--Arg--NH2 reads 0.95; that for “Ac-QNYPIV-NH2 [Ac--Gln--Asn--Tyr--Pro--Ile--Val--NH2]”, 0.04.

Turning to “Ac-TIMMQR-NH2 [Ac--Thr--Ile--Met--Met--Gln--Arg--NH2, Ac-Thr-Ile-Met-Met-Gln-Arg-NH2]”, in assay [2] (as substrate of HIV protease), the Km (as a rule, the substrate concentration at which the rate is half of its maximum) amounted to 1400 µM and the Vmax (commonly the rate approached at saturating substrate) came to 725 nmol/min/mg. Besides, the “Relative Rate” value in assay [2] is listed as 1.00. With SQNY-PI, the “cleavage by HIV protease” value in assay [3] is given as “failed to be cleaved”. For the molecule SQNY-PIV, in assay [3] (relative to VSQNYPIV), the “rate of cleavage relative to the octapeptide” value is listed as 90%. For VSQNYPIV, the Km in assay [3] (gag p17/gag p24 cleavage site substrate) was 2500 µM.

In the case of acetyl-QNY-PIV, the “cleavage by HIV protease” value in assay [3] is recorded as “failed to be cleaved”.
